# According to patent publication US20150105252A1, “SUBSTITUTED PYRAZOLES AS HERBICIDES” (E I DU PONT DE NEMOURS AND COMPANY, priority 2013, published 2015):
# Experiments:
# crabgrass, large = experiment: Test C preemergence; format: in vivo, Digitaria sanguinalis; conditions: preemergence; for Plant response rating, Crabgrass, Large: 125 g ai/ha, scale 0 to 100, 0 = no effect, 100 = complete control
# In short: (§1)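 Scores of 0 (no effect) to 100 (complete control) were assigned by eye after 13–15 days, comparing treated pots with controls. Soil-applied (preemergence) treatments went onto seeds in loam and sand; foliar (postemergence) treatments onto 1- to 4-leaf plants in peat medium.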
# morningglory = experiment: Test A preemergence; format: in vivo, Ipomoea spp.; conditions: preemergence; for Morningglory plant response rating (0 to 100 scale): 125 g ai/ha, visual injury approx. 10 days after treatment; for Morningglory plant response rating: 500 g ai/ha, visual injury after approx. 10 days, 0 to 100 scale (0 no effect, 100 complete control)
# In short: (§2)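 Scoring was visual, on a scale where 100 means complete control and 0 means no effect, comparing treated with untreated plants around 10 days post-application. Compounds in surfactant-containing non-phytotoxic solvent were sprayed onto soil preemergence or onto one- to two-leaf seedlings (2–10 cm) postemergence.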
# foxtail, giant [1] = experiment: Test C preemergence; format: in vivo, Setaria faberii; conditions: preemergence; for Plant response rating, Foxtail, Giant: 125 g ai/ha, scale 0 to 100, 0 = no effect, 100 = complete control
# In short: as §1
# velvetleaf [2] = experiment: Test A postemergence; format: in vivo, Abutilon theophrasti; conditions: Postemergence
# In short: as §2
# ryegrass, Italian = experiment: Test C preemergence; format: in vivo, Lolium multiflorum; conditions: preemergence; for Plant response rating, Ryegrass, Italian: 125 g ai/ha, scale 0 to 100, 0 = no effect, 100 = complete control
# In short: as §1
# barnyardgrass [3] = experiment: Test B flood; format: in vivo, Echinochloa crus-galli; conditions: 250 g ai/ha, visual rating on 0 to 100 scale (0 no effect, 100 complete control), 13 to 15 days
# In short: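 2-leaf plants; pots flooded 3 cm over soil; compound added to paddy water, depth kept constant. Greenhouse 13–15 d. Visual rating vs controls, 0–100 scale (100 = complete control); dash = no result.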
# ragweed = experiment: Test C preemergence; format: in vivo, Ambrosia elation; conditions: preemergence; for Plant response rating, Ragweed: 125 g ai/ha, scale 0 to 100, 0 = no effect, 100 = complete control
# In short: as §1
# foxtail, giant [4] = experiment: Test A preemergence; format: in vivo, Setaria faberii; conditions: preemergence; for Foxtail, Giant plant response rating (0 to 100 scale): 125 g ai/ha, visual injury approx. 10 days after treatment; for Foxtail, Giant plant response rating: 500 g ai/ha, visual injury after approx. 10 days, 0 to 100 scale (0 no effect, 100 complete control)
# In short: as §2
# johnsongrass = experiment: Test C preemergence; format: in vivo, Sorghum halepense; conditions: preemergence; for Plant response rating, Johnsongrass: 125 g ai/ha, scale 0 to 100, 0 = no effect, 100 = complete control
# In short: as §1
# velvetleaf [5] = experiment: Test A preemergence; format: in vivo, Abutilon theophrasti; conditions: preemergence; for Velvetleaf plant response rating (0 to 100 scale): 125 g ai/ha, visual injury approx. 10 days after treatment; for Velvetleaf plant response rating: 500 g ai/ha, visual injury after approx. 10 days, 0 to 100 scale (0 no effect, 100 complete control)
# In short: as §2
# barnyardgrass [6] = experiment: Test C preemergence; format: in vivo, Echinochloa crus-galli; conditions: preemergence; for Plant response rating, Barnyardgrass: 125 g ai/ha, scale 0 to 100, 0 = no effect, 100 = complete control
# In short: as §1
# oilseed rape = experiment: Test C preemergence; format: in vivo, Brassica napus; conditions: preemergence; for Plant response rating, Oilseed Rape: 125 g ai/ha, scale 0 to 100, 0 = no effect, 100 = complete control
# In short: as §1
# barnyardgrass [7] = experiment: Test A preemergence; format: in vivo, Echinochloa crus-galli; conditions: preemergence; for Barnyardgrass plant response rating (0 to 100 scale, 0 is no effect, 100 is complete control): 125 g ai/ha, visual injury approx. 10 days after treatment; for Barnyardgrass plant response rating: 500 g ai/ha, visual injury after approx. 10 days, 0 to 100 scale (0 no effect, 100 complete control)
# In short: as §2
# corn = experiment: Test C preemergence; format: in vivo, Zea mays; conditions: preemergence; for Plant response rating, Corn: 125 g ai/ha, scale 0 to 100, 0 = no effect, 100 = complete control
# In short: as §1
# [8] = 31 g ai/ha, visual rating, scale 0 to 100 (0 no effect, 100 complete control), 13 to 15 days
# [9] = 62 g ai/ha, scale 0 to 100 (0 no effect, 100 complete control), 13 to 15 days
# [10] = 250 g ai/ha, scale 0 to 100, 0 is no effect, 100 is complete control
# [11] = 125 g ai/ha, 0 to 100 scale, 0 no effect, 100 complete control
# [12] = 500 g ai/ha, 0 to 100 scale (0 no effect, 100 complete control)
smiles,measurement,setting,value
CCNC(=O)c1cc(CC)n(Cc2ccnc(C(F)(F)F)c2)n1 [Compound 196],"Crabgrass, Large plant response rating","crabgrass, large; [8]",98
same,"Crabgrass, Large plant response rating","crabgrass, large; [9]",98
same,"Plant response rating, Crabgrass, Large","crabgrass, large; 13 to 15 days",100
same,"Crabgrass, Large plant response rating","crabgrass, large; [10]",100
same,Morningglory plant response rating (0 to 100 scale),morningglory,100
same,Morningglory plant response rating,morningglory,100
same,"Foxtail, Giant plant response rating","foxtail, giant [1]; [8]",98
same,"Foxtail, Giant plant response rating","foxtail, giant [1]; [9]",100
same,"Plant response rating, Foxtail, Giant","foxtail, giant [1]; 13 to 15 days",100
same,"Foxtail, Giant plant response rating","foxtail, giant [1]; [10]",100
same,Velvetleaf plant response rating,velvetleaf [2]; [11],80
same,Velvetleaf plant response rating,velvetleaf [2]; [12],100
same,"Ryegrass, Italian plant response rating","ryegrass, Italian; [8]",30
same,"Ryegrass, Italian plant response rating","ryegrass, Italian; [9]",85
same,"Plant response rating, Ryegrass, Italian","ryegrass, Italian; 13 to 15 days",90
same,"Ryegrass, Italian plant response rating","ryegrass, Italian; [10]",90
same,"Plant response rating, Barnyardgrass",barnyardgrass [3],30
same,Ragweed plant response rating,ragweed; [8],85
same,Ragweed plant response rating,ragweed; [9],90
same,"Plant response rating, Ragweed",ragweed; 13 to 15 days,98
same,Ragweed plant response rating,ragweed; [10],98
same,"Foxtail, Giant plant response rating (0 to 100 scale)","foxtail, giant [4]",100
same,"Foxtail, Giant plant response rating","foxtail, giant [4]",90
same,Johnsongrass plant response rating,johnsongrass; [8],55
same,Johnsongrass plant response rating,johnsongrass; [9],85
same,"Plant response rating, Johnsongrass",johnsongrass; 13 to 15 days,100
same,Johnsongrass plant response rating,johnsongrass; [10],100
same,Velvetleaf plant response rating (0 to 100 scale),velvetleaf [5],80
same,Velvetleaf plant response rating,velvetleaf [5],100
same,Barnyardgrass plant response rating,barnyardgrass [6]; [8],98
same,Barnyardgrass plant response rating,barnyardgrass [6]; [9],100
same,"Plant response rating, Barnyardgrass",barnyardgrass [6]; 13 to 15 days,100
same,Barnyardgrass plant response rating,barnyardgrass [6]; [10],100
same,Oilseed Rape plant response rating,oilseed rape; [8],90
same,Oilseed Rape plant response rating,oilseed rape; [9],98
same,"Plant response rating, Oilseed Rape",oilseed rape; 13 to 15 days,100
same,Oilseed Rape plant response rating,oilseed rape; [10],100
same,"Barnyardgrass plant response rating (0 to 100 scale, 0 is no effect, 100 is complete control)",barnyardgrass [7],90
same,Barnyardgrass plant response rating,barnyardgrass [7],100
same,Corn plant response rating,corn; [8],5
same,Corn plant response rating,corn; [9],5
same,"Plant response rating, Corn",corn; 13 to 15 days,65
same,Corn plant response rating,corn; [10],98
Cc1cc(C(=O)NC(C)C)nn1Cc1ccnc(C(F)(F)F)c1 [Compound 197],"Crabgrass, Large plant response rating","crabgrass, large; [8]",100
same,"Crabgrass, Large plant response rating","crabgrass, large; [9]",100
same,"Plant response rating, Crabgrass, Large","crabgrass, large; 13 to 15 days",100
same,"Crabgrass, Large plant response rating","crabgrass, large; [10]",100
same,Morningglory plant response rating (0 to 100 scale),morningglory,100
same,Morningglory plant response rating,morningglory,100
same,"Foxtail, Giant plant response rating","foxtail, giant [1]; [8]",65
same,"Foxtail, Giant plant response rating","foxtail, giant [1]; [9]",98
same,"Plant response rating, Foxtail, Giant","foxtail, giant [1]; 13 to 15 days",100
same,"Foxtail, Giant plant response rating","foxtail, giant [1]; [10]",100
same,Velvetleaf plant response rating,velvetleaf [2]; [11],30
same,Velvetleaf plant response rating,velvetleaf [2]; [12],80
same,"Ryegrass, Italian plant response rating","ryegrass, Italian; [8]",15
same,"Ryegrass, Italian plant response rating","ryegrass, Italian; [9]",35
same,"Plant response rating, Ryegrass, Italian","ryegrass, Italian; 13 to 15 days",85
same,"Ryegrass, Italian plant response rating","ryegrass, Italian; [10]",90
same,"Plant response rating, Barnyardgrass",barnyardgrass [3],10
same,Ragweed plant response rating,ragweed; [8],60
same,Ragweed plant response rating,ragweed; [9],85
same,"Plant response rating, Ragweed",ragweed; 13 to 15 days,95
same,Ragweed plant response rating,ragweed; [10],98
same,"Foxtail, Giant plant response rating (0 to 100 scale)","foxtail, giant [4]",100
same,"Foxtail, Giant plant response rating","foxtail, giant [4]",100
same,Johnsongrass plant response rating,johnsongrass; [8],10
same,Johnsongrass plant response rating,johnsongrass; [9],40
same,"Plant response rating, Johnsongrass",johnsongrass; 13 to 15 days,80
same,Johnsongrass plant response rating,johnsongrass; [10],85
same,Velvetleaf plant response rating (0 to 100 scale),velvetleaf [5],70
same,Velvetleaf plant response rating,velvetleaf [5],100
same,Barnyardgrass plant response rating,barnyardgrass [6]; [8],65
same,Barnyardgrass plant response rating,barnyardgrass [6]; [9],98
same,"Plant response rating, Barnyardgrass",barnyardgrass [6]; 13 to 15 days,100
same,Barnyardgrass plant response rating,barnyardgrass [6]; [10],100
same,Oilseed Rape plant response rating,oilseed rape; [8],80
same,Oilseed Rape plant response rating,oilseed rape; [9],95
same,"Plant response rating, Oilseed Rape",oilseed rape; 13 to 15 days,95
same,Oilseed Rape plant response rating,oilseed rape; [10],100
same,"Barnyardgrass plant response rating (0 to 100 scale, 0 is no effect, 100 is complete control)",barnyardgrass [7],90
same,Barnyardgrass plant response rating,barnyardgrass [7],100
same,Corn plant response rating,corn; [8],5
same,Corn plant response rating,corn; [9],5
same,"Plant response rating, Corn",corn; 13 to 15 days,45
same,Corn plant response rating,corn; [10],95
